Activity calls are given as the source filed them. No rule for the calls is given here.
target: Serine/threonine-protein kinase mTOR (Homo sapiens) (UniProt P42345); assay: mTOR FRB domain ligand binding – biophysical, NMR (AID 1648); details: NMR binding to FRB domain, chemical shift
Sequence (P42345 2015-2114): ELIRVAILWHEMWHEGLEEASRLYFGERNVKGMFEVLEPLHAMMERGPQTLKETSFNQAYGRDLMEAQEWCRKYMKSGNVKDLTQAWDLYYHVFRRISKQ

| SMILES | Kd |
| --- | --- |
| Fc1ccc(Br)cc1/C=N/n1cnnc1 | > 4 mM (inactive) |
| O=C1CN2C(=N1)N(Cc1ccccc1)c1ccccc12 | > 4 mM (inactive) |
| NCCc1ccc(S(N)(=O)=O)cc1 | > 4 mM (inactive) |
| COC(=O)C1CSCC1=O (stereo not drawn) | > 4 mM (inactive) |
| NC(=O)c1ccc2c(c1)OCO2 | > 4 mM (inactive) |
| Nc1nc(O)c(C2=c3cc(Cl)ccc3=NC2=O)s1 | > 4 mM (inactive) |
| c1ccn(Cc2ccncc2)c1 | > 4 mM (inactive) |
| CC(C)=CCC/C(C)=C/CC/C(C)=C/CC/C(C)=C/CC/C(C)=C/CC/C(C)=C/CC/C(C)=C/CC/C(C)=C/CC/C(C)=C/CO | > 4 mM (inactive) |
| COc1ccc(-c2cc3nc4n(c(=O)c3s2)CCC4)cc1 | > 4 mM (inactive) |
| O=C(NCO)c1ccc([N+](=O)[O-])cc1 | > 4 mM (inactive) |
| Cc1[nH]c2ccccc2c1C=Nn1cncn1 | > 4 mM (inactive) |
| NC(=O)NC(=O)Nc1ccc(Cl)cc1 | > 4 mM (inactive) |
| O=C1OCCC1Sc1nc2ccccc2c(=O)[nH]1 (stereo not drawn) | > 4 mM (inactive) |
| O=C(CSc1ncccn1)Nc1nccs1 | > 4 mM (inactive) |
| O=C1c2ccccc2C(=O)c2c1ccc(O)c2O | > 4 mM (inactive) |
| CN1C(=O)N(C)C2NC(=O)NC21 (stereo not drawn) | > 4 mM (inactive) |
| COc1ccc(-c2ccc(SCC(N)=O)nn2)cc1 | > 4 mM (inactive) |
| O=C(NCc1cccs1)c1nn2cccnc2c1Cl | > 4 mM (inactive) |
| CN=C(c1ccc([N+](=O)[O-])cc1)N(C)C | > 4 mM (inactive) |
| O=C1c2ccccc2C(=O)N1Cc1ccco1 | > 4 mM (inactive) |
| CS(=O)(=O)c1ccc2nc(N)sc2c1 | > 4 mM (inactive) |
| O=C(NC1CSCC1O)c1ccccc1 (stereo not drawn) | > 4 mM (inactive) |
| CC(=O)Nc1ccc(N(C)C(C)=O)cc1 | > 4 mM (inactive) |
| Cc1occc1C(=O)Nc1ccc(C(N)=O)cc1 | > 4 mM (inactive) |

| SMILES | Kd |
| --- | --- |
| COCc1cc(=O)oc2cc(N)ccc12 | > 4 mM (inactive) |
| CCCCN1C(=O)N(C)C2NC(=O)NC21 (stereo not drawn) | > 4 mM (inactive) |
| Cc1cc(=O)cc(C)n1-c1ccccc1N | > 4 mM (inactive) |
| CSc1nc(-c2ccco2)nn1S(C)(=O)=O | > 4 mM (inactive) |
| O=C1C=CC2=C3c4cc(O)c(O)cc4C[C@@]3(O)COC2=C1 | > 4 mM (inactive) |
| C[C@H]1CCCC(=O)CCC/C=C/c2cc(O)cc(O)c2C(=O)O1 | > 4 mM (inactive) |
| CC(CCC(=O)O)[C@H]1CCC2C3CC[C@@H]4CCCC[C@]4(C)C3CC[C@@]21C (stereo partly drawn) | > 4 mM (inactive) |
| CCSc1nc(=S)n(CC)c(C)c1C(C)=O | > 4 mM (inactive) |
| O=C(c1ccco1)N1CCNCC1 | > 4 mM (inactive) |
| Cc1cc(=O)n(CC(C)C)c(O)c1C#N | > 4 mM (inactive) |
| O=C(Cc1cccs1)Nc1ccccn1 | > 4 mM (inactive) |
| CCOC(=O)c1c(-c2ccncc2)csc1N | > 4 mM (inactive) |
| c1nnc2c3c4c(sc3ncn12)CCCC4 | > 4 mM (inactive) |
| Cc1ccc(SCc2cc(=O)n3[nH]cnc3n2)cc1 | > 4 mM (inactive) |
| Cc1cc(Cl)ccc1NC(=O)C(N)=O | > 4 mM (inactive) |
| Cc1ccccc1NC(=S)NCCO | > 4 mM (inactive) |
| N=c1n(N)c2ccccc2n1CCO | > 4 mM (inactive) |
| COc1ccc(-c2cc(=O)c3c(O)cc(O)c(-c4cc(-c5cc(=O)c6c(O)cc(O)cc6o5)ccc4OC)c3o2)cc1 | > 4 mM (inactive) |
| COc1ccc(-c2oc3cc(O[C@H]4O[C@H](CO)[C@@H](O)[C@H](O)[C@H]4O)c(OC)c(O)c3c(=O)c2OC)cc1O | > 4 mM (inactive) |
| OCCNC(=S)Nc1ccccc1 | > 4 mM (inactive) |
| O=C(O)C1COc2ccccc2O1 (stereo not drawn) | > 4 mM (inactive) |
| CCCCCC1C(=O)CCC1CC(=O)O (stereo not drawn) | > 4 mM (inactive) |
| CC(C)CCCC(C)C1CCC2C3CC(=O)[C@H]4C[C@@H](O)CC[C@]4(C)C3CC[C@]12C (stereo partly drawn) | > 4 mM (inactive) |
| COc1cc2nc[nH]c(=O)c2cc1OC | > 4 mM (inactive) |

| SMILES | Kd |
| --- | --- |
| Cc1nn2c(-c3ccco3)nnc2c2ccccc12 | > 4 mM (inactive) |
| CC(=O)Nc1cccc(N(C)S(C)(=O)=O)c1 | > 4 mM (inactive) |
| Cc1cc(C)n2nc(SCC(=O)c3ccccc3)nc2n1 | > 4 mM (inactive) |
| Cc1cc(OC(=O)c2ccco2)c([N+](=O)[O-])c(=O)[nH]1 | > 4 mM (inactive) |
| NC(=O)c1cccc2c1OCCO2 | > 4 mM (inactive) |
| Nc1cccc2nsnc12 | > 4 mM (inactive) |
| CNC(=O)c1ccccc1-c1ccccc1 | > 4 mM (inactive) |
| CCOC(=O)Cn1cnc2c1c(=O)[nH]c(=O)n2C | > 4 mM (inactive) |
| OCc1ccccc1N1CCOCC1 | > 4 mM (inactive) |
| COCC(=O)Nc1cccc2ccccc12 | > 4 mM (inactive) |
| C[C@H]1C(=O)CCC2[C@]3(C)CC[C@@]4(C)C5CC(C)(C)CC[C@]5(C)CC[C@]4(C)C3CC[C@@]21C (stereo partly drawn) | > 4 mM (inactive) |
| C/C=C(\C)C(=O)OC1[C@@H]2C=C3C(CC[C@]4(C)C3CC(=O)O[C@H]4c3ccoc3)C(C)(C2=O)[C@@H](C(O)C(=O)OC)C1(C)C (stereo partly drawn) | > 4 mM (inactive) |
| Cc1ccc(C(=O)N2CCC(C(=O)O)CC2)cc1 | > 4 mM (inactive) |
| OC1CCCN(Cc2ccccc2)C1 (stereo not drawn) | > 4 mM (inactive) |
| CC(=O)O[C@]1(C)CC[C@@]23CC1C(C)(C)[C@@H]2CC[C@H]3C | > 4 mM (inactive) |
| Cc1nnsc1C(=O)N(C)c1ccccc1 | > 4 mM (inactive) |
| O=C(CN1C(=O)c2cccc3cccc(c23)C1=O)NO | > 4 mM (inactive) |
| O=c1cnnc(Nc2ccc(O)cc2)[nH]1 | > 4 mM (inactive) |
| Cn1cc(Cl)c(C(=O)Nc2ccncc2)n1 | > 4 mM (inactive) |
| CC[C@@]1(O)C[C@H](O[C@H]2C[C@H](N(C)C)[C@H](O)[C@H](C)O2)c2c(cc3c(c2O)C(=O)c2c(O)cccc2C3=O)[C@H]1C(=O)OC | > 4 mM (inactive) |
| O=C(Nc1c[nH]c(=O)[nH]c1=O)c1cccs1 | > 4 mM (inactive) |
| Nc1ccc2c(c1)S(=O)(=O)C=C2 | > 4 mM (inactive) |
| O=C(O)CN1CCN(C2CCCC2)CC1 | > 4 mM (inactive) |
| Cc1nc(-c2cc(CO)no2)cs1 | > 4 mM (inactive) |

| SMILES | Kd |
| --- | --- |
| Nc1nc2ccc(S(N)(=O)=O)cc2s1 | > 4 mM (inactive) |
| OC1CNCc2cc3c(cc21)OCCO3 (stereo not drawn) | > 4 mM (inactive) |
| COc1cccc(=O)c2c(C)n(C)c(C)c12 | > 4 mM (inactive) |
| Cn1cnc2c(Cl)ncnc21 | > 4 mM (inactive) |
| Nc1cccc(-n2cccc2)c1 | > 4 mM (inactive) |
| Nc1ccc(CN2CCS(=O)(=O)CC2)cc1 | > 4 mM (inactive) |
| COc1ccc2c(c1)OCC(Cc1ccc(OC)c(OC)c1)C2=O (stereo not drawn) | > 4 mM (inactive) |
| CC(C)NC(=O)c1cc(-n2cnnc2)ccc1Cl | > 4 mM (inactive) |
| CN(C)C(=O)Oc1ccc(-c2nnco2)cc1 | > 4 mM (inactive) |
| OCc1c[nH]c2ccccc12 | > 4 mM (inactive) |
| Cn1c(=O)c2ccccc2n(Cc2ccccc2F)c1=O | > 4 mM (inactive) |
| CN(C)C(=O)N1CCN(C(=O)c2ccco2)CC1 | > 4 mM (inactive) |
| NCc1csc2ccccc12 | > 4 mM (inactive) |
| O=C1CSC(=Nc2ccc(Cl)cc2)N1 | > 4 mM (inactive) |
| c1ccc2c(c1)[nH]c1cnccc12 | > 4 mM (inactive) |
| C/C=C(\C)c1nnc(NC(=O)C(C)C)s1 | > 4 mM (inactive) |
| Cc1n[nH]c(C)c1CC(=O)O | > 4 mM (inactive) |
| Nc1ncnc2c1ncn2[C@@H]1O[C@H](CO)[C@@H](O)[C@H]1O | > 4 mM (inactive) |
| CS(=O)(=O)N1CCN(C(=O)c2ccccc2F)CC1 | > 4 mM (inactive) |
| CC(=O)Oc1ccc(-c2cc(=O)c3c(OC(C)=O)cc(OC(C)=O)cc3o2)cc1 | > 4 mM (inactive) |
| COc1cccc(O)c1O | > 4 mM (inactive) |
| O=C(Cn1cncn1)c1ccc(F)c(F)c1 | > 4 mM (inactive) |
| Cc1nn(-c2ccccc2)nc1CN | > 4 mM (inactive) |
| Cc1nc(-c2cccc(-c3noc(C)n3)c2)no1 | > 4 mM (inactive) |

| SMILES | Kd |
| --- | --- |
| COc1c(O)cccc1O | > 4 mM (inactive) |
| CCOC(=O)c1cnn2ccccc12 | > 4 mM (inactive) |
| N[C@@H](Cc1ccc(O)c(O)c1)C(=O)O | > 4 mM (inactive) |
| Nc1c(F)c(F)nc(F)c1F | > 4 mM (inactive) |
| O=c1[nH]c(O)c(C=NC2CC2)c(=O)[nH]1 | > 4 mM (inactive) |
| O=C(Nc1ccon1)c1cccc(Cl)c1 | > 4 mM (inactive) |
| CC(C)(C)CC(=O)NC1=NCCS1 | > 4 mM (inactive) |
| CCCCCC/C=C\CCCCCCCc1cccc(O)c1C(=O)O | > 4 mM (inactive) |
| COC(=O)C[C@H]1C(C)(C)C(=O)[C@@H]2CC3C4=CC(=O)O[C@@H](c5ccoc5)[C@]4(C)CCC3C1(C)C2=O (stereo partly drawn) | > 4 mM (inactive) |
| O=C(COc1ccccc1Cl)N1CCCC1 | > 4 mM (inactive) |
| Nc1ccc(N2CCOCC2)cc1 | > 4 mM (inactive) |
| Cc1nc2ccc(NC(=O)N3CCOCC3)cc2s1 | > 4 mM (inactive) |
| Cc1ccc(Nc2nc(N)nc(CC#N)n2)cc1 | > 4 mM (inactive) |
| NCc1cccc2c1OCCCO2 | > 4 mM (inactive) |
| NCCN=C1NS(=O)(=O)c2ccccc21 | > 4 mM (inactive) |
| CC1(C)CC[C@]2(C(=O)O)CC[C@]3(C)C(=CCC4[C@@]5(C)CC[C@H](O)[C@@](C)(CO)C5CC[C@]43C)C2C1 (stereo partly drawn) | > 4 mM (inactive) |
| CNCc1ccccc1 | > 4 mM (inactive) |
| O=C(O)C1CCN(c2ccc(C(F)(F)F)cn2)CC1 | > 4 mM (inactive) |
| O=c1c(-c2cccs2)[n+]([O-])c2ccccc2n1O | > 4 mM (inactive) |
| O=c1[nH]c(CN2CCN(CCO)CC2)nc2ccccc12 | > 4 mM (inactive) |
| N[C@@H](C(=O)O)[C@@H](O)[C@H](O)[C@H](O)CO | > 4 mM (inactive) |
| COc1ccc(-c2oc3c(CC=C(C)C)c(O[C@@H]4O[C@H](CO)[C@@H](O)[C@H](O)[C@H]4O)cc(O)c3c(=O)c2O[C@@H]2O[C@@H](C)[C@H](O)[C@@H](O)[C@H]2O)cc1 | > 4 mM (inactive) |

Reference: PubChem BioAssay AID1648 (Sanford-Burnham Center for Chemical Genomics, 2009)
